Literature values in US20230320989A1, “SUSTAINED-RELEASE PHARMACEUTICAL FORMULATION OF FUSED TRICYCLIC ?-AMINO ACID DERIVATIVE AND PREPARATION METHOD THEREFOR” (SICHUAN HAISCO PHARMACEUTICAL CO., LTD., priority 2020, published 2023).

Conditions: patients with diabetic peripheral neuropathy

SMILES: NCC1(CC(=O)O)CCCCC1 [gabapentin]
- proportion of patients whose pain is relieved to a great extent: about 60%
